Where a name gives a salt, the structure may show the parent alone.
| melting point [°C] | SMILES |
| --- | --- |
| 124.8 | COc1cccc(C(=O)N[C@H]2C[C@@H](c3cc(NC(=O)Cc4cccc5ccccc45)n[nH]3)C2)c1 (as salt: HCl) [Example 44, 3-Methoxy-N-{cis-3-[5-(2-naphthalen-1-yl-acetylamino)-2H-pyrazol-3-yl]-cyclobutyl}-benzamide] |
| 142.8 | O=C(Cc1cccc2ccccc12)Nc1cc([C@H]2C[C@@H](NC(=O)c3cccc(C(F)(F)F)c3)C2)[nH]n1 (as salt: HCl) [Example 45, N-{cis-3-[5-(2-Naphthalen-1-yl-acetylamino)-2H-pyrazol-3-yl]-cyclobutyl}-3-trifluoromethyl-benzamide] |
| 209.4 | CC(=O)N[C@H]1C[C@@H](c2cc(NC(=O)Cc3cccc4ccccc34)n[nH]2)C1 (as salt: HCl) [Example 48, N-[5-(cis-3-Acetylamino-cyclobutyl)-1H-pyrazol-3-yl]-2-naphthalen-1-yl-acetamide] |
| 194 | O=C(Cc1cccc2ccccc12)Nc1cc([C@H]2C[C@@H](NC(=O)c3ccccc3)C2)[nH]n1 (as salt: HCl) [Example 49, N-{cis-3-[5-(2-Naphthalen-1-yl-acetylamino)-2H-pyrazol-3-yl]-cyclobutyl}-benzamide] |
| 175.6 | COc1ccc(C(=O)N[C@H]2C[C@@H](c3cc(NC(=O)Cc4cccc5ccccc45)n[nH]3)C2)cc1 (as salt: HCl) [Example 54, 4-Methoxy-N-{cis-3-[5-(2-naphthalen-1-yl-acetylamino)-2H-pyrazol-3-yl]-cyclobutyl}-benzamide] |
| 123.5 | O=C(Cc1cccc2ccccc12)Nc1cc([C@H]2C[C@@H](NC(=O)c3cccc([N+](=O)[O-])c3)C2)[nH]n1 (as salt: HCl) [Example 55, N-{cis-3-[5-(2-Naphthalen-1-yl-acetylamino)-2H-pyrazol-3-yl]-cyclobutyl}-3-nitro-benzamide] |

The next lines start with the molecule.

| SMILES | melting point [°C] |
| --- | --- |
| O=C(NC1CCC(c2cc(Nc3cccc(C(F)(F)F)c3)n[nH]2)C1)c1ccccn1 (centres unmarked) (as salt: HCl) [Example 31, Pyridine-2-carboxylic acid {3-[5-(3-trifluoromethyl-phenylamino)-2H-pyrazol-3-yl]-cyclopentyl}-amide] | 180.1 |
| O=C(NC1CCC(c2cc(Nc3cccc(C(F)(F)F)c3)n[nH]2)C1)C1CCC1 (centres unmarked) (as salt: HCl) [Example 33, Cyclobutanecarboxylic acid {3-[5-(3-trifluoromethyl-phenylamino)-2H-pyrazol-3-yl]-cyclopentyl}-amide] | 232.4 |
| CC(C)(C)C(=O)NC1CCC(c2cc(Nc3cccc(C(F)(F)F)c3)n[nH]2)C1 (centres unmarked) (as salt: HCl) [Example 34, 2,2-Dimethyl-N-{3-[5-(3-trifluoromethyl-phenylamino)-2H-pyrazol-3-yl]-cyclopentyl}-propionamide] | 249.2 |
| CC(C)C(=O)N[C@H]1C[C@@H](c2cc(NC(=O)Cc3cccc4ccccc34)n[nH]2)C1 (as salt: HCl) [Example 46, N-{cis-3-[5-(2-Naphthalen-1-yl-acetylamino)-2H-pyrazol-3-yl]-cyclobutyl}-isobutyramide] | 130.6 |
| O=C(Cc1cccc2ccccc12)Nc1cc([C@H]2C[C@@H](NC(=O)C3CC3c3ccccc3)C2)[nH]n1 (stereo partly drawn) (as salt: HCl) [Example 47, 2-Phenyl-cyclopropanecarboxylic acid {cis-3-[5-(2-naphthalen-1-yl-acetylamino)-2H-pyrazol-3-yl]-cyclobutyl}-amide] | 139.8 |
| O=C(Cc1cccc2ccccc12)Nc1cc([C@H]2C[C@@H](NC(=O)CC3CC3)C2)[nH]n1 (as salt: HCl) [Example 50, 2-Cyclopropyl-N-{cis-3-[5-(2-naphthalen-1-yl-acetylamino)-2H-pyrazol-3-yl]-cyclobutyl}-acetamide] | 93.2 |
| O=C(Cc1cccc2ccccc12)Nc1cc([C@H]2C[C@@H](NC(=O)c3ccc4ccccc4n3)C2)[nH]n1 (as salt: HCl) [Example 52, Quinoline-2-carboxylic acid {cis-3-[5-(2-naphthalen-1-yl-acetylamino)-2H-pyrazol-3-yl]-cyclobutyl}-amide] | 200.3 |
| O=C(Cc1cccc2ccccc12)Nc1cc([C@H]2C[C@@H](Oc3nc4ccccc4o3)C2)[nH]n1 (as salt: HCl) [Example 63, N-{5-[cis-3-(Benzooxazol-2-yloxy)-cyclobutyl]-1H-pyrazol-3-yl}-2-naphthalen-1-yl-acetamide] | 142 |
